The text below walks through data of article PMC7358406, “Molecular and Biochemical Characterization of Salt-Tolerant Trehalose-6-Phosphate Hydrolases Identified by Screening and Sequencing Salt-Tolerant Clones From the Metagenomic Library of the Gastrointestinal Tract” (Frontiers in Microbiology, 2020).

Test [1] relates to T1, rTRE_P3 (TRE_P3), trehalose-6-phosphate hydrolase.
T1 construct: full length without signal peptide, gene 1644 bp
Kind of test: p-nitrophenol release, A410, initial rates. In kind it is biochemical, Staphylococcus warneri. As to conditions: 50 mM HEPES-NaOH pH 7.5 and 100 mM NaCl (standard assay), 30°C; pNPG 0.5-10 mM.

In test [2] the test system is T2, rTRE_P2 (TRE_P2), trehalose-6-phosphate hydrolase.
T2 construct: full length without signal peptide, gene 1638 bp
Kind of test: p-nitrophenol release, A410, initial rates. The format is biochemical, Staphylococcus warneri. The note with it: 50 mM HEPES-NaOH pH 7.5 and 100 mM NaCl (standard assay), 30°C; pNPG 0.5-10 mM.

Each structure is given as a SMILES string.

In the case of `O=[N+]([O-])c1ccc(O[C@H]2O[C@H](CO)[C@@H](O)[C@H](O)[C@H]2O)cc1` [p-nitrophenyl-α-D-glucopyranoside], the values for the Michaelis-Menten constant (Km) in test [1] and in test [2] were 12.5 mM and 15.6 mM, respectively.

What is called Km is the substrate concentration at which the rate is half of its maximum.
